{"source": "patent US8147817B2", "about": "“IL-33 in the treatment and diagnosis of diseases and disorders” (The Brigham and Women's Hospital, Inc., priority 2006, dated 2012)", "key": {"IL-33": {"tested_on": "IL-33", "experiment": "IL-33 gene expression by quantitative PCR in cardiomyocytes and cardiac fibroblasts", "type": "cell-based, rat", "conditions": "PMA 0.2 μM, angiotensin-II 0.1 μM, TNF-α 10 ng/ml, IL-1β 10 ng/ml", "protocol": "mRNA expression was analyzed by quantitative PCR using the QuantiTect SYBR Green reverse transcription-PCR kit (QIAGEN, Valencia, Calif.) and the Light Cycler System (Roche Applied Science, Indianapolis, Ind.) as previously described (5). Total RNA was extracted from cells with TRI reagent, and 0.2 μg of RNA was analyzed. Sequences of PCR primers were as follows (5′ to 3′): […] (SEQ ID NO: 1) and […] (SEQ ID NO: 2) (IL-33); […] (SEQ ID NO: 3) and […] (SEQ ID NO: 4) (ANP); […] (SEQ ID NO: 5) and […] (SEQ ID NO: 6) (BNP); […] (SEQ ID NO: 7) and […] (SEQ ID NO: 8) (procollagen I); […] (SEQ ID NO: 9) and […] (SEQ ID NO: 10) (collagen III).\nmRNA expression was analyzed by quantitative PCR using the QuantiTect SYBR Green reverse transcription-PCR kit (QIAGEN) and the Light Cycler System (Roche Applied Science) as previously described (45). Total RNA was extracted from cells with TRI reagent, and 0.2 μg of RNA was analyzed. Sequences of PCR primers were as follows (5′ to 3′): […] (SEQ ID NO: 1) and […] (SEQ ID NO: 2) (rat IL-33); […] (SEQ ID NO: 3) and […] (SEQ ID NO: 4) (rat ANP); […] (SEQ ID NO: 5) and […] (SEQ ID NO: 6) (rat BNP)."}, "[1]": {"tested_on": "rat neonatal cardiac fibroblasts", "experiment": "sST2 and IL-33 secretion and free IL-33 in cardiac fibroblast conditioned media (Western, immunoprecipitation)", "type": "cell-based", "protocol": "Immunoprecipitation was performed as described previously (45) with some modifications. Briefly, after wash with PBS, protein G-agarose beads were presaturated with far excessive amount of sST2-Fc protein (R&D) at 4° C. overnight, washed 3 times with PBS. 1 ml of conditioned media in the presence and absence of separated preincubation with 20 μg of the sST2-Fc protein was then incubated with presaturated beads for 2 hours at room temperature.\n(§1) Western analyses were performed as described previously (45). Membranes were incubated with primary antibodies overnight (anti-p44/42MAPK diluted 1:500; phospho-p44/42MAPK (Thr202/Tyr204) 1:1000; phospho-JNK (Thr183/Tyr185) 1:500; p38MAPK 1:500; phospho-p38MAPK (Thr180/Tyr182) 1:500; phospho-Akt (Ser473) 1:1000 and phospho-IκBα 1:1000, all from Cell Signaling, anti-mouse ST2L, from R&D 1:1000 and anti-IL-33 as described above, 1:500) at 4° C., detected with horseradish peroxidase-conjugated antibodies and enhanced chemiluminescence."}, "NF-κB [2]": {"tested_on": "NF-κB", "experiment": "NF-κB nuclear binding activity by EMSA in cardiomyocytes", "type": "cell-based, rat", "conditions": "cardiomyocytes; angiotensin-II 1 μM, phenylephrine 50 μM, IL-33 10 ng/ml", "protocol": "(§2) Electromobility shift assays were performed as described previously (8). Cells were lysed for 10 minutes on ice in a solution containing 10 mM HEPES (pH 7.6), 15 mM KCl, 2 mM MgCl2, 0.1 mM ethylenediamine tetraacetic acid (EDTA), 1 mM dithiothreitol (DTT), 0.5 mM phenylmethylsulphonylfluoride (PMSF), 10 μg/mL leupeptin and 0.2% Nonident P-40. Dishes were gently scraped, and nuclei were collected by centrifugation at 800 g for 30 seconds and then suspended in a solution of 50 mM HEPES, 400 mM KCl, 0.1 mM EDTA, 10% glycerol, 1 mM DTT, 0.5 mM PMSF and 10 μg/mL leupeptin. The mixture was incubated on ice for 30 minutes, and the supernatant was collected after centrifugation for 15 minutes at 400 g. Binding reactions were performed with 5 or 10 μg of nuclear protein in 10 mM Tris, 1 mM DTT, 1 mM EDTA, 5% glycerol, 0.1% Triton X-100, 1 mg poly(dIdC), 5 μg bovine serum albumin (BSA) and approximately 10,000 cpm of −32P-labeled oligonucleotide. The binding reactions for AP-1 activity also contained 5 mM MgCl2. Control reaction mixtures contained a 100-fold excess of unlabeled oligonucleotide and were incubated with nuclear extracts of IL-1β-treated cells. DNA complexes were separated on a 4% nondenaturing polyacrylamide gel in Tris-HCl (6.7 mM), EDTA (1 mM) and ammonium acetate (3.3 mM). The oligonucleotides contained the NF-B binding site (sequence: 5′-AGTTGAGGGGACTTTCCCAGGC-3′ (SEQ ID NO: 15)) and were labeled by standard procedures.\nEMSAs were performed as described previously (47). Cells were lysed for 10 minutes on ice in 10 mM HEPES (pH 7.6), 15 mM KCl, 2 mM MgCl2, 0.1 mM EDTA, 1 mM DTT, 0.5 mM PMSF, 10 μg/mL leupeptin, and 0.2% Nonident P-40. Dishes were gently scraped, and nuclei were collected by centrifugation at 800 g for 30 seconds and then suspended in a solution of 50 mM HEPES, 400 mM KCl, 0.1 mM EDTA, 10% glycerol, 1 mM DTT, 0.5 mM PMSF, and 10 μg/mL leupeptin. The mixture was incubated on ice for 30 minutes, and the supernatant was collected after centrifugation for 15 minutes at 400 g. Binding reactions were performed with 5 or 10 μg of nuclear protein in 10 mM Tris, 1 mM DTT, 1 mM EDTA, 5% glycerol, 0.1% Triton X-100, 1 mg poly(dIdC), […] BSA, and 10,000 cpm of [^32P]-labeled oligonucleotide. The specific NF-κB consensus oligonucleotides were 5′-[…]-3′ (SEQ ID NO: 15) and 5′-[…]-3′ (SEQ ID NO: 18) (Promega). Positive and negative control mixtures as well as specific competition mixtures were made as recommended by the manufacturer's instructions, using binding buffer with positive samples, labeled NF-κB oligonucleotides and 10-fold excess of cold NF-κB consensus oligonucleotides for specific competition. DNA complexes were separated on a 6% nondenaturing polyacrylamide gel in Tris-HCl (6.7 mM), EDTA (1 mM), and ammonium acetate (3.3 mM)."}, "NF-κB [3]": {"tested_on": "NF-κB", "experiment": "NF-κB nuclear binding activity by EMSA in cardiac fibroblasts", "type": "cell-based, rat", "conditions": "angiotensin-II 1 μM, phenylephrine 50 μM, IL-33 10 ng/ml", "protocol": "as §2\nEMSAs were performed as described previously (47). Cells were lysed for 10 minutes on ice in 10 mM HEPES (pH 7.6), 15 mM KCl, 2 mM MgCl2, 0.1 mM EDTA, 1 mM DTT, 0.5 mM PMSF, 10 μg/mL leupeptin, and 0.2% Nonident P-40. Dishes were gently scraped, and nuclei were collected by centrifugation at 800 g for 30 seconds and then suspended in a solution of 50 mM HEPES, 400 mM KCl, 0.1 mM EDTA, 10% glycerol, 1 mM DTT, 0.5 mM PMSF, and 10 μg/mL leupeptin. The mixture was incubated on ice for 30 minutes, and the supernatant was collected after centrifugation for 15 minutes at 400 g. […]"}, "cardiomyocytes": {"tested_on": "cardiomyocytes", "experiment": "Oxidative stress assay (DCFDA, ROS generation)", "type": "cell-based, rat", "conditions": "DCFDA", "protocol": "An assay to detect oxidative stress was performed as reported previously (48). Cardiomyocytes were incubated with 2,7-dichlorodihydrofluorecein diacetate (DCFDA) for 45 min, washed in phosphate-buffered saline, and fluorescence intensity was measured using a fluorometer (PerkinElmer Life Science) at 595 nm."}, "IκBα [4]": {"tested_on": "IκBα", "experiment": "IκBα phosphorylation by Western analysis in cardiomyocytes", "type": "cell-based, rat", "conditions": "cardiomyocytes", "protocol": "as §1"}, "IκBα [5]": {"tested_on": "IκBα", "experiment": "IκBα phosphorylation by Western analysis in cardiac fibroblasts", "type": "cell-based, rat", "protocol": "as §1"}, "NF-κB [6]": {"tested_on": "NF-κB", "experiment": "NF-κB luciferase reporter assay in neonatal rat cardiomyocytes", "type": "cell-based", "conditions": "n=3", "protocol": "Neonatal rat cardiomyocytes were transfected using Lipofectamine Plus (Invitrogen) with a luciferase reporter plasmid for NF-κB and with β-galactosidase, as described previously (47). After 48 hours of transfection, cells were then stimulated for an additional 24 hours, lysed and treated with Dual-Light assay system (Applied Biosystems, Foster City, Calif.), and analyzed using a luminometer (PerkinElmer Waltham, Calif.)."}, "[7]": {"tested_on": "rat neonatal cardiomyocytes", "experiment": "[3H]-leucine incorporation assay (hypertrophy)", "type": "cell-based", "conditions": "for hypertrophic response under angiotensin-II or phenylephrine: agent added without IL-33; for antihypertrophic effect of IL-33: under angiotensin-II or phenylephrine plus IL-33, agent added", "protocol": "Leucine incorporation in rat neonatal cardiomyocytes was detected as previously described (7). Cells were pre-incubated with 1.0 μCi/mL [^3H]leucine for 24 hours. The medium was aspirated, and the cells were washed twice with ice-cold PBS and once with 10% trichloroacetic acid (TCA; Sigma) and fixed for 45 minutes at 4° C. with 10% TCA. After washing twice with cold 95% ethanol, radioactivity incorporated into the TCA-precipitable material was determined by liquid scintillation counting after solubilization in 0.15N NaOH.\nLeucine incorporation in rat neonatal cardiomyocytes was detected as previously described (46). Cells were treated with 1.0 μCi/ml [^3H]-leucine for 24 hours, washed, fixed with 10% trichloroacetate (Sigma) for 45 minutes at 4° C., and then radioactivity was determined by liquid scintillation counting. An anti-mouse ST2 antibody (R&D) was used as a functional neutralizing antibody (12). A normal rat IgG2a (Sigma) and mouse IL-1Rrp2 (R&D) were used as controls for anti-mouse ST2 antibody (R&D) and mouse soluble ST2 (R&D), respectively."}, "[8]": {"conditions": "increasing doses of PMA, 24 hrs"}}, "note": "“Also recorded” adds a separate entry of the source."}
{"compound": "CCCCCCCCCCCCCC(=O)O[C@@H]1[C@@H](C)[C@@]2(O)[C@@H](C=C(CO)C[C@]3(O)C(=O)C(C)=C[C@@H]23)[C@@H]2C(C)(C)[C@]12OC(C)=O", "note": "[PMA, phorbol 12-myristate 13-acetate]", "values": [{"measurement": "induction of IL-33 gene expression", "setting": "IL-33", "value": "induced the expression of IL-33 in both cell types; also recorded: powerful inducer"}, {"measurement": "free (unbound) IL-33", "setting": "[1]; [8]", "value": "unbound IL-33 diminished; also recorded: dose-dependent decrease in free IL-33 level; also recorded: dose-dependently decreased free IL-33"}, {"measurement": "secretion of sST2 and total IL-33", "setting": "[1]; [8]", "value": "both sST2 and total IL-33 were induced; also recorded: dose-dependent robust induction in both sST2 and IL-33 protein expression; also recorded: dose-dependently increased secretion of both IL-33 (top) and sST2"}]}
{"compound": "CNC[C@H](O)c1cccc(O)c1", "note": "[phenylephrine, reference compound]", "values": [{"measurement": "NF-κB activation by agent alone", "setting": "NF-κB [2]", "value": "independently activated NF-κB in both cell types"}, {"measurement": "NF-κB activation by agent alone", "setting": "NF-κB [3]", "value": "independently activated NF-κB in both cell types"}, {"measurement": "ROS generation by agonist alone", "setting": "cardiomyocytes", "value": "significantly induced ROS generation"}]}
{"compound": "IL-1β: cytokine stimulus, 10 ng/ml", "values": [{"measurement": "induction of IL-33 gene expression", "setting": "IL-33", "value": "neither TNF-α (10 ng/ml) nor IL-1β (10 ng/ml) induced IL-33 gene expression"}]}
{"compound": "TNF-α", "values": [{"measurement": "induction of IL-33 gene expression", "setting": "IL-33", "value": "neither TNF-α (10 ng/ml) nor IL-1β (10 ng/ml) induced IL-33 gene expression"}]}
{"compound": "angiotensin-II (DRVYIHPF; Angiotensin-2; UniProt P01019 25-32, looked up) [hypertrophic stimulus, angiotensin receptor agonist, reference compound]", "values": [{"measurement": "NF-κB activation by agent alone", "setting": "NF-κB [2]", "value": "independently activated NF-κB in both cell types"}, {"measurement": "NF-κB activation by agent alone", "setting": "NF-κB [3]", "value": "independently activated NF-κB in both cell types"}, {"measurement": "IκBα phosphorylation by agent alone", "setting": "IκBα [4]", "value": "induced IκBα phosphorylation in both cell types"}, {"measurement": "IκBα phosphorylation by agent alone", "setting": "IκBα [5]", "value": "induced IκBα phosphorylation in both cell types"}, {"measurement": "increase of NF-κB promoter activity", "setting": "NF-κB [6]; angiotensin-II alone", "value": "66+/−26%"}, {"measurement": "ROS generation by agonist alone", "setting": "cardiomyocytes", "value": "significantly induced ROS generation"}, {"measurement": "induction of IL-33 gene expression", "setting": "IL-33", "value": "induced the expression of IL-33 in both cell types"}]}
{"compound": "sST2-Fc: sST2-Fc protein (R&D), recombinant ST2-Fc chimera protein", "values": [{"measurement": "free IL-33 in conditioned media after preincubation", "setting": "[1]; 20 μg of sST2-Fc protein", "value": "removed free IL-33"}]}
{"compound": "sST2: soluble form of ST2; mouse soluble ST2 (R&D); acts as decoy receptor for IL-33", "values": [{"measurement": "hypertrophic response under angiotensin-II or phenylephrine", "setting": "[7]", "value": "further augment the hypertrophic response; also recorded: trend toward increased amino acid uptake"}, {"measurement": "hypertrophic response under angiotensin-II or phenylephrine", "setting": "[7]; listed as soluble ST2", "value": "further enhanced hypertrophy"}, {"measurement": "leucine uptake at baseline", "setting": "[7]; agent alone, vs baseline or control protein", "value": "not affected"}, {"measurement": "antihypertrophic effect of IL-33", "setting": "[7]", "value": "reversed the antihypertrophic effect of IL-33 in a dose-dependent manner"}, {"measurement": "antihypertrophic effect of IL-33", "setting": "[7]; listed as Soluble ST2", "value": "dose-dependently reversed the antihypertrophic effect of IL-33"}, {"measurement": "antihypertrophic effect of IL-33", "setting": "[7]; listed as soluble ST2", "value": "abolishes it; also recorded: the effects of IL-33 are abolished"}, {"measurement": "increase of NF-κB promoter activity", "setting": "NF-κB [6]; angiotensin-II with IL-33 and sST2 co-treatment", "value": "42+/−5%"}]}
